For data set [1], the system named is Swiss mice, kidney. Nature of the data set: Nephrotoxicity in mice (kidney histopathology). Conditions: for Kidney histopathology (SQS Score): 72 mg/kg/d subcutaneously in six divided doses every 2 h, n = 3; for Kidney histopathology, mice with the SQS score: mouse, in vivo. It counts as in vivo, mouse. The method in brief:
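Female Swiss mice (7-week-old, 22–28 g) received lipopeptides in saline either s.c. at 12 mg/kg ×6 every 2 h (total 72 mg/kg, n = 3) or i.p. at 20 or 25 mg/kg ×6 every 2 h (total 120 mg/kg, n = 6; 150 mg/kg, n = 3). Right kidney collected 20 h after last dose, fixed in 10% buffered formalin (pH 7.4), histology scored blinded.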

The subject of data set [2] is A. baumannii ATCC 19606. It counts as cell-based, Acinetobacter baumannii. The conditions noted are these: ATCC 19606. The method in brief: (§1)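 MICs were determined by broth microdilution in cation-adjusted Mueller–Hinton broth (CaMHB), with clinical isolates tested alongside ATCC strains.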
Data set [3] concerns A. baumannii FADDI-AB034. It counts as cell-based, Acinetobacter baumannii. The conditions noted are these: FADDI-AB034. A digest of the protocol:
(§2)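 Compounds were serially diluted in CaMHB, bacteria were added, and the lowest inhibitory concentration was recorded after broth microdilution testing.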

Data set [4] relates to A. baumannii FADDI-AB030. It counts as cell-based, Acinetobacter baumannii. Conditions: FADDI-AB030. A digest of the protocol:
as §2

The subject of data set [5] is P. aeruginosa ATCC 27853. Nature of the data set: Neutropenic mouse bloodstream infection model. It counts as in vivo. Conditions: single IV dose 4 mg/kg; for Log10 CFU/mL blood at 4 h, Mean / Δlog10 CFU/mL blood (mean) / Log10 CFU/mL blood at 4 h, single mouse: 4 h; for Δlog10 CFU/mL blood (mean): treated minus control, mean of replicates; for Δlog10 CFU/mL blood (mean) / Log10 CFU/mL blood at 4 h, single mouse / Delta Log10 CFU/mL blood at 4 h, single mouse: 4 mg/kg; for Delta Log10 CFU/mL blood at 4 h, single mouse: treated mouse minus mean of vehicle mice. A digest of the protocol:
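Female Swiss mice made neutropenic with cyclophosphamide (150 mg/kg day −4, 100 mg/kg day −1), infected IV with 50 µL of 4 × 10^8 CFU/mL. Lipopeptide 4 mg/kg (free base) IV at 2 h post-inoculation, n = 3. Efficacy = Δlog10 CFU/mL blood versus saline at 4 h post-dose.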

Data set [6] deals with P. aeruginosa ATCC 27853. It counts as cell-based, Pseudomonas aeruginosa. Conditions: ATCC 27853. The method in brief: as §1
The subject of data set [7] is P. aeruginosa FADDI-PA025. It counts as cell-based, Pseudomonas aeruginosa. The conditions noted are these: FADDI-PA025. The method in brief:
as §2

Data set [8] relates to P. aeruginosa FADDI-PA038. It counts as cell-based, Pseudomonas aeruginosa. The conditions noted are these: FADDI-PA038. A digest of the protocol:
as §2

Data set [9] concerns K. pneumoniae FADDI-KP065. It counts as cell-based, Klebsiella pneumoniae. Conditions: FADDI-KP065. The method in brief:
as §2

For data set [10], the system named is K. pneumoniae FADDI-KP032. It counts as cell-based, Klebsiella pneumoniae. Conditions: FADDI-KP032. The method in brief: as §2

Converted amounts (≈) assume the structure as drawn. “And” between values parts separate entries of the source, which are not always exact repeats. Equal values may be shown once. Residues, ends and D or L forms follow the SMILES beside them.

On to `CC[C@@H]1NC(=O)[C@@H](CC(C)C)NC(=O)[C@H](CCN)NC(=O)[C@@H](NC(=O)[C@H](CN)NC(=O)[C@@H](NC(=O)[C@H](CCN)NC(=O)c2ccc(F)cc2Cl)[C@@H](C)O)CCNC(=O)[C@H]([C@@H](C)O)NC(=O)[C@H](CCN)NC(=O)[C@H](CCN)NC1=O` [Lipopeptide F449] (HELM PEPTIDE1{[O=C(c1ccc(F)cc1Cl)[*:2]].[Dab].T.[NC[C@H](N[*:1])C(=O)[*:2]].[Dab].[Dab].[dL].[Abu].[Dab].[Dab].T}$PEPTIDE1,PEPTIDE1,5:R3-11:R2$$$V2.0), for which, in data set [1], the “Kidney histopathology (SQS Score)” value was 0 (SQS 0 = no significant change (overall score, <1)) and the “Kidney histopathology, mice with the SQS score” value is reported as 3/3. The “MIC A. baumannii ATCC 19606” value in data set [2] is 4 µg/mL (≈ 3.5 µM). The “MIC A. baumannii FADDI-AB034” value in data set [3] is 1 µg/mL (≈ 0.874 µM). For the same compound, the “MIC A. baumannii FADDI-AB030” value in data set [4] came to 1 µg/mL (≈ 0.874 µM). Besides, in data set [5], the “Log10 CFU/mL blood at 4 h, Mean” value was 5.26 Log10 CFU/mL blood; the “Δlog10 CFU/mL blood (mean)” value is −2.32 log10 CFU/mL blood; the “Log10 CFU/mL blood at 4 h, single mouse” value was 5.17 Log10 CFU/mL blood and 5.18 Log10 CFU/mL blood and 5.44 Log10 CFU/mL blood; the “Delta Log10 CFU/mL blood at 4 h, single mouse” value was -2.41 Log10 CFU/mL blood and -2.40 Log10 CFU/mL blood and -2.14 Log10 CFU/mL blood. In data set [6], the “MIC P. aeruginosa ATCC 27853” value was determined as 0.5 µg/mL (≈ 0.437 µM). For the same compound, the “MIC P. aeruginosa FADDI-PA025” value in [7] was determined as 2 µg/mL (≈ 1.75 µM). For the same compound, in data set [8], the “MIC P. aeruginosa FADDI-PA038” value was 1 µg/mL (≈ 0.874 µM). Further, the “MIC K. pneumoniae FADDI-KP065” value in [9] was 0.25 µg/mL (≈ 0.219 µM). Moreover, the “MIC K. pneumoniae FADDI-KP032” value in data set [10] was 0.25 µg/mL (≈ 0.219 µM).
As for `CCCCCCCC(=O)N[C@@H](CCN)C(=O)N[C@H](C(=O)N[C@@H](CCN)C(=O)N[C@H]1CCNC(=O)[C@H]([C@@H](C)O)NC(=O)[C@H](CCN)NC(=O)[C@H](CCN)NC(=O)[C@H](CC(C)C)NC(=O)[C@@H]([C@H](C)O)NC(=O)[C@H](CCN)NC1=O)[C@@H](C)O` [Lipopeptide F228] (HELM PEPTIDE1{[CCCCCCCC(=O)[*:2]].[Dab].T.[Dab].[Dab].[Dab].[dT].L.[Dab].[Dab].T}$PEPTIDE1,PEPTIDE1,5:R3-11:R2$$$V2.0), in data set [1], the “Kidney histopathology (SQS Score)” value is reported as “+1 (SQS + 1 = mild damage (overall score, 1 to <15))” and the “Kidney histopathology, mice with the SQS score” value is 1/3. Further, the “MIC A. baumannii ATCC 19606” value in data set [2] was more than 32 µg/mL. Moreover, the “MIC A. baumannii FADDI-AB034” value in [3] came to 32 µg/mL (≈ 28 µM). The “MIC A. baumannii FADDI-AB030” value in data set [4] is on record as 16 µg/mL (≈ 14 µM). Besides, in data set [5], the “Log10 CFU/mL blood at 4 h, Mean” value stood at 4.13 Log10 CFU/mL blood; the “Δlog10 CFU/mL blood (mean)” value is given as −3.39 log10 CFU/mL blood; the “Log10 CFU/mL blood at 4 h, single mouse” value is 3.99 Log10 CFU/mL blood and 4.11 Log10 CFU/mL blood and 4.28 Log10 CFU/mL blood; the “Delta Log10 CFU/mL blood at 4 h, single mouse” value was -3.52 Log10 CFU/mL blood and -3.40 Log10 CFU/mL blood and -3.24 Log10 CFU/mL blood. Further, the “MIC P. aeruginosa ATCC 27853” value in data set [6] came out at 0.25 µg/mL (≈ 0.219 µM). In data set [7], the “MIC P. aeruginosa FADDI-PA025” value came out at 32 µg/mL (≈ 28 µM). In addition, in data set [8], the “MIC P. aeruginosa FADDI-PA038” value stood at 32 µg/mL (≈ 28 µM). In addition, in data set [9], the “MIC K. pneumoniae FADDI-KP065” value was found to be 16 µg/mL (≈ 14 µM). For the same compound, the “MIC K. pneumoniae FADDI-KP032” value in [10] amounted to 2 µg/mL (≈ 1.75 µM).

These data come from PMC8956739, “A synthetic lipopeptide targeting top-priority multidrug-resistant Gram-negative pathogens” (Nature Communications, 2022).
